# Measured values as given in patent US10030047B2 (Hoffmann-La Roche Inc., priority 2015, dated 2018).
# System: A. baumannii strain ATCC19606
# Test: Minimum inhibitory concentration (MIC) determination, microbroth dilution (CLSI)
# Assay type: cell-based
# Conditions: Acinetobacter baumannii, ATCC19606, 20 h, read-out: ATCC19606 MIC
# Procedure: The in vitro antimicrobial activity of the compounds was determined through microbroth minimum inhibitory concentration (MIC) methodology performed according to the Clinical and Laboratory Standard Institute guidelines (CLSI—M07-A9 Jan. 2012. Methods for Dilution Antimicrobial Susceptibility Tests for Bacteria That Grow Aerobically; Approved Standard—Ninth Edition, Clinical and Laboratory Standards Institute, Wayne/PA, US and the CLSI—M100-S24 Jan. 2014. Performance Standards for Antimicrobial Susceptibility Testing; Approved Standard—Fourth Informational Supplement, Clinical and Laboratory Standards Institute, Wayne/PA, US).
# The compound stock solution was freshly prepared at 10× the required top concentration for the MIC determination, i.e. at 1280 mg/L, by reconstitution of the dry compound in 50:50 water:DMSO.
# Polystyrene non-treated 96 wells microtiter plates were used for preparing panel containing compound serial twofold diluted at two times the final testing concentration (e.g. range from 64 to 0.06 μg/ml) in cation adjusted Mueller Hinton broth medium (CAMHB).
# Inoculum was prepared by the “direct colony suspension method”. Colonies of A. baumannii ATCC19606 or clinical isolates were suspended in saline solution and adjusted to 0.5 McFarland, diluted 100 times in CAMHB broth and 50 μl added to each well (final concentration of cells ˜5×10^(5) CFU/ml and Final volume/well of 100 μl). Microtiter plates were sealed and incubated at 35±2° C.
# MICs values were read after 20 hours of incubation and recorded as the lowest concentration of the antimicrobial that inhibits more or equal to 80% of growth of the organism as detected by the unaided eye and using a microtiter plate optical density reader (OD 600 nm).
# Tables 2, 3, 4 and 5 provide the minimum inhibitory concentration (MIC) in microgram per milliliter of the compounds of present invention obtained against the A. baumannii strain ATCC19606 (Tables 2, 3, 4 and 5).
row,SMILES,MIC [µg/mL]
1,"CN1C(=O)[C@H](CCCN)NC(=O)[C@H](CCCN)NCc2ccccc2Sc2ccccc2CNC(=O)[C@@H]1Cc1c[nH]c2ccccc12 [Example 2, (12S,15S,18S)— 15,18-Bis-(3-amino-propyl)-12-(1H-indol-3-ylmethyl)-13-methyl-2-thia-10,13,16,19-tetraaza-tricyclo[19.4.0.0*3,8*]pentacosa-1(21),3,5,7,22,24-hexaene-11,14,17-trione]",4

# Same assay, conditions: Acinetobacter baumannii; A. baumannii ATCC19606; CAMHB; read after 20 hours; >=80% growth inhibition; read-out: ATCC19606 MIC
row,MIC [µg/mL],SMILES
1,4,"CN1C(=O)[C@H](CCCCN)NC(=O)[C@H](CCCN)NCc2ccccc2Sc2ccccc2CNC(=O)[C@@H]1Cc1c[nH]c2ccccc12 [Example 1, (12S,15S,18S)-15-(4-Amino-butyl)-18-(3-amino-propyl)-12-(1H-indol-3-ylmethyl)-13-methyl-2-thia-10,13,16,19-tetraaza-tricyclo[19.4.0.0*3,8*]pentacosa-1(21),3,5,7,22,24-hexaene-11,14,17-trione]"
2,16,"CN1C(=O)[C@H](CCCCN)NC(=O)[C@H](C2CCNCC2)NCc2ccccc2Sc2ccccc2CNC(=O)[C@@H]1Cc1c[nH]c2ccccc12 [Example 3, (12S,15S,18S)-15-(4-Amino-butyl)-12-(1H-indol-3-ylmethyl)-13-methyl-18-piperidin-4-yl-2-thia-10,13,16,19-tetraaza-tricyclo[19.4.0.0*3,8*]pentacosa-1(21),3,5,7,22,24-hexaene-11,14,17-trione]"
3,1,"CN1C(=O)[C@H](CCCCN)NC(=O)[C@H](CCCN)NCc2ccccc2Sc2ccc(Cl)cc2CNC(=O)[C@@H]1Cc1c[nH]c2ccccc12 [Example 4, (12S,15S,18S)-15-(4-Amino-butyl)-18-(3-amino-propyl)-6-chloro-12-(1H-indol-3-ylmethyl)-13-methyl-2-thia-10,13,16,19-tetraaza-tricyclo[19.4.0.0*3,8*]pentacosa-1(21),3,5,7,22,24-hexaene-11,14,17-trione]"
4,32,"CN1C(=O)[C@H](CCCCN)NC(=O)[C@H](CNC(=N)N)NCc2ccccc2Sc2ccccc2CNC(=O)[C@@H]1Cc1c[nH]c2ccccc12 [Example 5, N-[(11S,14S,17S)-14-(4-Amino-butyl)-17-(1H-indol-3-ylmethyl)-16-methyl-12,15,18-trioxo-2-thia-10,13,16,19-tetraaza-tricyclo[19.4.0.0*3,8*]pentacosa-1(25),3(8),4,6,21,23-hexaen-11-ylmethyl]-guanidine]"
5,2,"CN1C(=O)[C@H](CCCCN)NC(=O)[C@H](CCCN)NCc2ccccc2Sc2cc(Cl)ccc2CNC(=O)[C@@H]1Cc1c[nH]c2ccccc12 [Example 6, (12S,15S,18S)-15-(4-Amino-butyl)-18-(3-amino-propyl)-5-chloro-12-(1H-indol-3-ylmethyl)-13-methyl-2-thia-10,13,16,19-tetraaza-tricyclo[19.4.0.0*3,8*]pentacosa-1(21),3,5,7,22,24-hexaene-11,14,17-trione]"
6,0.5,"COc1ccc2c(c1)CNC(=O)[C@H](Cc1c[nH]c3ccccc13)N(C)C(=O)[C@H](CCCCN)NC(=O)[C@H](CCCN)NCc1ccccc1S2 [Example 7, (12S,15S,18S)-15-(4-Amino-butyl)-18-(3-amino-propyl)-12-(1H-indol-3-ylmethyl)-6-methoxy-13-methyl-2-thia-10,13,16,19-tetraaza-tricyclo[19.4.0.0*3,8*]pentacosa-1(21),3,5,7,22,24-hexaene-11,14,17-trione]"
7,0.5,"Cc1cccc2c1Sc1ccccc1CN[C@@H](CCCN)C(=O)N[C@@H](CCCCN)C(=O)N(C)[C@@H](Cc1c[nH]c3ccccc13)C(=O)NC2 [Example 8, (12S,15S,18S)-15-(4-Amino-butyl)-18-(3-amino-propyl)-12-(1H-indol-3-ylmethyl)-4,13-dimethyl-2-thia-10,13,16,19-tetraaza-tricyclo[19.4.0.0*3,8*]pentacosa-1(21),3,5,7,22,24-hexaene-11,14,17-trione]"
8,16,"Cc1ccc2c(c1)Sc1ccccc1CN[C@@H](CCCN)C(=O)N[C@@H](CCCCN)C(=O)N(C)[C@@H](Cc1c[nH]c3ccccc13)C(=O)NC2 [Example 9, (12S,15S,18S)-15-(4-Amino-butyl)-18-(3-amino-propyl)-12-(1H-indol-3-ylmethyl)-5,13-dimethyl-2-thia-10,13,16,19-tetraaza-tricyclo[19.4.0.0*3,8*]pentacosa-1(21),3,5,7,22,24-hexaene-11,14,17-trione]"
9,2,"Cc1ccc2c(c1)CNC(=O)[C@H](Cc1c[nH]c3ccccc13)N(C)C(=O)[C@H](CCCCN)NC(=O)[C@H](CCCN)NCc1ccccc1S2 [Example 10, (12S,15S,18S)-15-(4-Amino-butyl)-18-(3-amino-propyl)-12-(1H-indol-3-ylmethyl)-6,13-dimethyl-2-thia-10,13,16,19-tetraaza-tricyclo[19.4.0.0*3,8*]pentacosa-1(21),3,5,7,22,24-hexaene-11,14,17-trione]"
10,0.5,"CN1C(=O)[C@H](CCCCN)NC(=O)[C@H](CCCN)NCc2ccccc2Sc2c(Cl)cccc2CNC(=O)[C@@H]1Cc1c[nH]c2ccccc12 [Example 11, (12S,15S,18S)-15-(4-Amino-butyl)-18-(3-amino-propyl)-4-chloro-12-(1H-indol-3-ylmethyl)-13-methyl-2-thia-10,13,16,19-tetraaza-tricyclo[19.4.0.0*3,8*]pentacosa-1(21),3,5,7,22,24-hexaene-11,14,17-trione]"
11,0.5,"CN1C(=O)[C@H](CCCCN)NC(=O)[C@H](CCCN)NCc2ccccc2Sc2c(cccc2C(F)(F)F)CNC(=O)[C@@H]1Cc1c[nH]c2ccccc12 [Example 12, (12S,15S,18S)-15-(4-Amino-butyl)-18-(3-amino-propyl)-12-(1H-indol-3-ylmethyl)-13-methyl-4-trifluoromethyl-2-thia-10,13,16,19-tetraaza-tricyclo[19.4.0.0*3,8*]pentacosa-1(21),3,5,7,22,24-hexaene-11,14,17-trione]"
12,2,"CN1C(=O)[C@H](CCCCN)NC(=O)[C@H](CCCN)NCc2ccccc2Sc2cc(C(F)(F)F)ccc2CNC(=O)[C@@H]1Cc1c[nH]c2ccccc12 [Example 13, (12S,15S,18S)-15-(4-Amino-butyl)-18-(3-amino-propyl)-12-(1H-indol-3-ylmethyl)-13-methyl-5-trifluoromethyl-2-thia-10,13,16,19-tetraaza-tricyclo[19.4.0.0*3,8*]pentacosa-1(21),3,5,7,22,24-hexaene-11,14,17-trione]"
13,1,"CN1C(=O)[C@H](CCCCN)NC(=O)[C@H](CCCN)NCc2ccccc2Sc2ccc(C(F)(F)F)cc2CNC(=O)[C@@H]1Cc1c[nH]c2ccccc12 [Example 14, (12S,15S,18S)-15-(4-Amino-butyl)-18-(3-amino-propyl)-12-(1H-indol-3-ylmethyl)-13-methyl-6-trifluoromethyl-2-thia-10,13,16,19-tetraaza-tricyclo[19.4.0.0*3,8*]pentacosa-1(21),3,5,7,22,24-hexaene-11,14,17-trione]"
14,32,"CN1C(=O)[C@H](CCCCN)NC(=O)[C@H](CCCN)NCc2ccccc2Sc2ccccc2CNC(=O)[C@@H]1Cc1c[nH]c2cc(Cl)ccc12 [Example 15, (12S,15S,18S)-15-(4-Amino-butyl)-18-(3-amino-propyl)-12-(6-chloro-1H-indol-3-ylmethyl)-13-methyl-2-thia-10,13,16,19-tetraaza-tricyclo[19.4.0.0*3,8*]pentacosa-1(21),3,5,7,22,24-hexaene-11,14,17-trione]"
15,32,"CN1C(=O)[C@H](CCCCN)NC(=O)[C@H](CCCN)NCc2ccccc2Sc2ccccc2CNC(=O)[C@@H]1Cc1cn(C)c2cc(Cl)ccc12 [Example 16, (12S,15S,18S)-15-(4-Amino-butyl)-18-(3-amino-propyl)-12-(6-chloro-1-methyl-1H-indol-3-ylmethyl)-13-methyl-2-thia-10,13,16,19-tetraaza-tricyclo[19.4.0.0*3,8*]pentacosa-1(21),3,5,7,22,24-hexaene-11,14,17-trione]"
16,32,"CN1C(=O)[C@H](CCCCN)NC(=O)[C@H](CCCN)NCc2ccccc2Sc2ccc(Cl)cc2CNC(=O)[C@@H]1Cc1cn(C)c2ccccc12 [Example 17, (12S,15S,18S)-15-(4-Amino-butyl)-18-(3-amino-propyl)-6-chloro-13-methyl-12-(1-methyl-1H-indol-3-ylmethyl)-2-thia-10,13,16,19-tetraaza-tricyclo[19.4.0.0*3,8*]pentacosa-1(21),3,5,7,22,24-hexaene-11,14,17-trione]"
17,16,"CN1C(=O)[C@H](CCCCN)NC(=O)[C@H](CCCN)NCc2ccccc2Sc2ccc(Cl)cc2CNC(=O)[C@@H]1Cc1c[nH]c2cc(Cl)ccc12 [Example 18, (12S,15S,18S)-15-(4-Amino-butyl)-18-(3-amino-propyl)-6-chloro-12-(6-chloro-1H-indol-3-ylmethyl)-13-methyl-2-thia-10,13,16,19-tetraaza-tricyclo[19.4.0.0*3,8*]pentacosa-1(21),3,5,7,22,24-hexaene-11,14,17-trione]"
